This is an account of results in patent US9284350B2, “IAP BIR domain binding compounds” (Pharmascience Inc., priority 2010, dated 2016).

As usually defined, the Ki is a dissociation constant, usually derived from enzyme kinetics or from competition with a known ligand. The term EC50 denotes the midpoint of the concentration-response curve.

For one assay, the target named is T1, cIAP2 (Homo sapiens, UniProt Q13489).
T1 construct: GST (N); made in house; host or cells: E. coli DH5α
Put plainly: Fluorescence polarization-based competition assay, cIAP2. It counts as binding. The note with it: FP assay, ki derived from IC50. The gist of the method:
(§1)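 Competition of FITC-labelled probe (2 nM) binding to the BIR domain, protein set at 80% of maximal FP signal; 10-point compound dilutions in 50 mM HEPES pH 7.5, γ-globulin, 2 mM DTT, 1% DMSO, 1 h at room temperature in the dark. IC50 from sigmoidal fit; Ki derived from IC50.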
Background: Fluorescence polarisation rises when a labelled molecule tumbles more slowly, as on binding a larger partner.

The next assay deals with T2, XIAP (Homo sapiens, UniProt P98170).
T2 construct: fused on or other part: GST tag at the N-terminus (pGEX4T vectors)
T2 sequence (P98170 246-497 limits assumed): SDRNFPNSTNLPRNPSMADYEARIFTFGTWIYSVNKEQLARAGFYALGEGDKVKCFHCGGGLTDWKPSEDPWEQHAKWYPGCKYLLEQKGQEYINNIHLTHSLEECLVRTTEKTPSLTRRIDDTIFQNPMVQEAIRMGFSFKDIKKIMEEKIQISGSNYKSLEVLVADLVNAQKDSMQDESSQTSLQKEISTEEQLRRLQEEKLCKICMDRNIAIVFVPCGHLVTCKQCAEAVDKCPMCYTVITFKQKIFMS
Put plainly: Fluorescence polarization-based competition assay, XIAP. It counts as binding. The following applies: FP assay, ki derived from IC50. The gist of the method:
as §1

The target of another assay is T3, c-IAP1 (Homo sapiens, UniProt Q13490).
T3 construct: GST (N); made in house; host or cells: E. coli DH5α
T3 sequence (Q13490 251-363): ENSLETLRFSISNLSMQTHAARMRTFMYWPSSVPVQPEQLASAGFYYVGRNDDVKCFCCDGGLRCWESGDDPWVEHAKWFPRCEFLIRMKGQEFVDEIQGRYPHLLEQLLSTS
Put plainly: Fluorescence polarization-based competition assay, c-IAP1. It counts as binding. The following applies: FP assay, ki derived from IC50. The gist of the method:
as §1

The test system of assay [1] is Colorectal carcinoma HCT116 cells. Put plainly: Cell death assay (MTT) in combination with HGS ETR1. It counts as cell-based. The note with it: with HGS ETR1 30 ng/ml, 72 hours, read-out: HCT116+ mapatubimap EC50. The gist of the method:
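HCT116 cells (2000/well, McCoy's 5a, 10% FBS) were treated 24 h after plating with compound plus the agonistic TRAIL receptor antibody mapatumumab (ETR1, 30 ng/ml) for 72 hours. Viability was read by MTT. EC50 was the concentration giving 50% survival relative to untreated controls.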

T1 sequence (Q13489 236-349): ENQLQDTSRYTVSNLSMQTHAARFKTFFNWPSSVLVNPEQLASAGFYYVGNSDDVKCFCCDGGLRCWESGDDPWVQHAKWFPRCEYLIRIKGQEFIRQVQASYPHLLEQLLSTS

As for `CN[C@@H](C)C(=O)N[C@H](C(=O)N1C[C@@H](Oc2ccc(F)cc2)C[C@H]1CN(CCc1ccc(F)cc1)C(=O)c1cn2ccccc2n1)[C@@H](C)OC` [Compound 102], the Ki on cIAP2 was less than 0.025 µM; on XIAP, less than 0.25 µM; at c-IAP1, less than 0.025 µM. Besides, in assay [1], the EC50 was less than 0.05 µM.
Regarding `CN[C@@H](C)C(=O)N[C@H](C(=O)N1CCC[C@H]1CN(CCc1ccc(F)cc1)C(=O)c1cn(-c2ccccc2)nn1)C(C)(C)C` [Compound 50], the Ki is less than 0.025 µM at cIAP2, less than 0.25 µM at XIAP and less than 0.025 µM on c-IAP1. In addition, in assay [1], the EC50 is less than 0.25 µM.
`CN[C@@H](C)C(=O)N[C@H](C(=O)N1CCC[C@H]1CN(CCc1ccc(F)cc1)C(=O)c1cn(C)cn1)[C@@H](C)OC` [Compound 73]: the Ki on cIAP2 is less than 0.025 µM; at XIAP, less than 0.25 µM; at c-IAP1 it was less than 0.025 µM. In addition, the EC50 in assay [1] was less than 0.25 µM.
Turning to `CN[C@@H](C)C(=O)N[C@H](C(=O)N1C[C@@H](NC(C)=O)C[C@H]1CN(CCc1ccc(F)cc1)C(=O)c1cn2cccnc2n1)C(C)(C)C` [Compound 55], the results for the inhibitory constant (Ki) at cIAP2, on XIAP and on c-IAP1 were less than 0.025 µM, less than 0.25 µM and less than 0.025 µM, respectively. The EC50 in assay [1] is more than 1 µM.
Turning to `CN[C@@H](C)C(=O)N[C@H](C(=O)N1CCC[C@H]1CN(CCc1ccc(F)cc1)C(=O)c1cn(C2CCCCC2)cn1)C(C)(C)C` [Compound 93], the Ki is less than 0.025 µM on cIAP2, less than 0.25 µM at XIAP and less than 0.025 µM on c-IAP1. The concentration for a half-maximal effect (EC50) in assay [1] is less than 0.05 µM.
On to `CN[C@@H](C)C(=O)N[C@H](C(=O)N1C[C@@H](NC(=O)c2ccccc2)C[C@H]1CN(CCc1ccc(F)cc1)C(=O)c1cn(-c2ccc(F)cc2)cn1)C(C)(C)C` [Compound 87], for which the Ki was less than 0.025 µM at cIAP2, less than 0.25 µM on XIAP and less than 0.025 µM at c-IAP1. Further, in assay [1], the half-maximal effective concentration (EC50) is less than 0.25 µM.
On to `CN[C@@H](C)C(=O)N[C@H](C(=O)N1C[C@@H](NC(=O)c2ccccc2)C[C@H]1CN(CCc1ccc(F)cc1)C(=O)c1cn(C)cn1)C(C)(C)C` [Compound 86], for which the Ki was less than 0.025 µM at cIAP2, less than 0.25 µM at XIAP and less than 0.025 µM at c-IAP1. In addition, the EC50 in assay [1] was less than 0.05 µM.
As for `CN[C@@H](C)C(=O)N[C@H](C(=O)N1CCC[C@H]1CN(CCc1ccc(F)cc1)C(=O)c1cc(-c2ccccc2)on1)C(C)(C)C` [Compound 115], the results for the Ki on cIAP2, on XIAP and at c-IAP1 were less than 0.025 µM, less than 0.25 µM and less than 0.025 µM, respectively. Also, the EC50 in assay [1] was less than 0.25 µM.
Consider `CN[C@@H](C)C(=O)N[C@H](C(=O)N1C[C@@H](Oc2ccc(F)cc2)C[C@H]1CN(CCc1ccc(F)cc1)C(=O)c1cn(-c2ccc(F)cc2)cn1)[C@@H](C)OC` [Compound 108], for which the results for the Ki on cIAP2, on XIAP and on c-IAP1 were less than 0.025 µM, less than 0.25 µM and less than 0.025 µM, respectively. Also, the half-maximal effective concentration (EC50) in assay [1] is less than 0.25 µM.
Consider `CN[C@@H](C)C(=O)N[C@H](C(=O)N1CCC[C@H]1CN(CCc1ccc(F)cc1)C(=O)c1cn2ccccc2n1)C(C)(C)C` [Compound 17], for which the figures for the Ki on cIAP2, at XIAP and at c-IAP1 were less than 0.025 µM, less than 0.25 µM and less than 0.025 µM, respectively. Further, the EC50 in assay [1] was less than 0.05 µM.
On to `CN[C@@H](C)C(=O)N[C@H](C(=O)N1C[C@@H](Oc2ccc(OC)cc2)C[C@H]1CN(CCc1ccc(F)cc1)C(=O)c1cn(C)cn1)C(C)(C)C` [Compound 96], for which the results for the Ki on cIAP2, at XIAP and at c-IAP1 were less than 0.025 µM, less than 0.25 µM and less than 0.025 µM, respectively. For the same compound, the EC50 in assay [1] is less than 0.05 µM.
On to `CN[C@@H](C)C(=O)N[C@H](C(=O)N1CCC[C@H]1CN(CCc1ccc(F)cc1)C(=O)c1cn(-c2ccccc2)nn1)[C@@H](C)OC` [Compound 77], for which the Ki is less than 0.025 µM at cIAP2, less than 0.25 µM at XIAP and less than 0.025 µM at c-IAP1. Further, in assay [1], the EC50 was less than 0.05 µM.
As for `CN[C@@H](C)C(=O)N[C@H](C(=O)N1C[C@@H](NC(=O)c2ccccc2)C[C@H]1CN(CCc1ccc(F)cc1)C(=O)c1cn2cccnc2n1)C(C)(C)C` [Compound 49], the Ki at cIAP2 is less than 0.025 µM; on XIAP it was less than 1 µM; on c-IAP1, less than 0.025 µM. Further, the EC50 in assay [1] is less than 0.25 µM.
For `CN[C@@H](C)C(=O)N[C@H](C(=O)N1C[C@@H](Oc2ccncc2)C[C@H]1CN(CCc1ccc(F)cc1)C(=O)c1cn2ccccc2n1)C(C)(C)C` [Compound 106], the Ki at cIAP2 is less than 0.025 µM; at XIAP it was less than 0.25 µM; at c-IAP1, less than 0.025 µM. For the same compound, the EC50 in assay [1] is less than 0.05 µM.
As to `CCN[C@@H](C)C(=O)N[C@H](C(=O)N1CCC[C@H]1CN(CCc1ccccc1)C(=O)c1cn2cccnc2n1)C(C)(C)C` [Compound 14], the Ki at cIAP2 was less than 0.25 µM; at XIAP it was less than 1 µM; on c-IAP1, less than 0.025 µM. Besides, the 50% effective concentration (EC50) in assay [1] is less than 0.25 µM.
`CN[C@@H](C)C(=O)N[C@H](C(=O)N1C[C@@H](Oc2ccc(F)cc2)C[C@H]1CN(CCc1ccc(F)cc1)C(=O)c1cn2cccnc2n1)[C@@H](C)OC` [Compound 100]: the Ki was less than 0.025 µM on cIAP2, less than 0.25 µM at XIAP and less than 0.025 µM on c-IAP1. In addition, in assay [1], the EC50 was less than 0.25 µM.
`CN[C@@H](C)C(=O)N[C@H](C(=O)N1CCC[C@H]1CN(CCc1ccc(F)cc1)C(=O)c1nccn1C)[C@@H](C)OC` [Compound 85]: the results for the Ki at cIAP2, at XIAP and on c-IAP1 were less than 0.025 µM, less than 1 µM and less than 0.025 µM, respectively. For the same compound, the EC50 in assay [1] is less than 0.05 µM.
`CN[C@@H](C)C(=O)N[C@H](C(=O)N1CCC[C@H]1CN(CCc1ccc(F)cc1)C(=O)c1cn2cc(F)cnc2n1)[C@@H](C)OC` [Compound 74]: the Ki on cIAP2 is less than 0.025 µM; on XIAP, less than 0.25 µM; on c-IAP1 it was less than 0.025 µM. The EC50 in assay [1] was less than 0.05 µM.
Turning to `CN[C@@H](C)C(=O)N[C@H](C(=O)N1CCC[C@H]1CN(CCc1ccc(F)cc1)C(=O)c1cc2ccccn2c1)C(C)(C)C` [Compound 68], the Ki at cIAP2 was less than 0.025 µM; on XIAP, less than 0.25 µM; at c-IAP1, less than 0.025 µM. For the same compound, the EC50 in assay [1] is less than 0.25 µM.
With `CN[C@@H](C)C(=O)N[C@H](C(=O)N1CCC[C@H]1CN(CCc1ccc(F)cc1)C(=O)c1cn(-c2ccccc2)cn1)C(C)(C)C` [Compound 61], the Ki is less than 0.025 µM on cIAP2, less than 0.25 µM on XIAP and less than 0.025 µM on c-IAP1. Moreover, in assay [1], the EC50 is less than 0.25 µM.
With `CN[C@@H](C)C(=O)N[C@H](C(=O)N1CCC[C@H]1CN(CCc1ccc(F)cc1)C(=O)c1cn(C2CCCC2)cn1)C(C)(C)C` [Compound 91], the Ki on cIAP2 is less than 0.025 µM; at XIAP, less than 0.25 µM; on c-IAP1 it was less than 0.025 µM. Further, the EC50 in assay [1] was less than 0.05 µM.
On to `CN[C@@H](C)C(=O)N[C@H](C(=O)N1C[C@@H](NC(=O)OCc2ccccc2)C[C@H]1CN(CCc1ccc(F)cc1)C(=O)c1cn2cccnc2n1)C(C)(C)C` [Compound 44], for which the Ki at cIAP2 is less than 0.025 µM; at XIAP it was less than 0.25 µM; at c-IAP1, less than 0.025 µM. In addition, the EC50 in assay [1] is less than 0.25 µM.
As to `CN[C@@H](C)C(=O)N[C@H](C(=O)N1CCC[C@H]1CN(CCc1ccc(F)cc1)C(=O)c1cn(-c2ccc(F)cc2)cn1)C1CCCCC1` [Compound 104], the results for the Ki at cIAP2, at XIAP and at c-IAP1 were less than 0.025 µM, less than 0.25 µM and less than 0.025 µM, respectively. Also, the EC50 in assay [1] was less than 0.05 µM.
